According to US20190038597A1, “PREVENTION OF VASCULAR AND CARDIAC FIBROSIS VIA IRE1ALPHA INHIBITION” (McMaster University, priority 2017, published 2019):

Assays:
Format in all cases: in vivo, rat
[1] = test system: SHR/L-NAME model of hypertension; experiment: Collagen content / fibrosis of vessels in L-NAME-treated SHRs; settings: 18 days
Protocol: (§1) 12-14 week old male SHRs were randomized to receive vehicle, L-NAME (50 mg/L) or L-NAME and 4μ8c (2.5 mg/kg/day i.p.) for 18 days. Aortas and carotid arteries were removed at sacrifice for mechanical and structural analysis. (A) Picro-Sirius Red staining of aorta and carotid artery sections (B) Determination of soluble collagen content in aorta and carotid arteries by Picro-Sirius Red-based assay. Stress-strain curves (C,E), elastic modulus-stress lines (D,F) and the slope of the elastic modulus-stress lines (G,H) were calculated. Data is presented as mean±SEM. *, p<0.05 vs. NT; #, p<0.05 vs. L-NAME. N≥4 per group; 2-5 segments of the thoracic aorta were analyzed per animal. In C to F, lines of best fit are bound by 95% confidence intervals (dotted lines). *, p<0.05.
12-14 week old male SHRs were used to determine the effect of pharmacological IRE1α inhibition on L-NAME-induced vascular stiffening. They were maintained on a 12-hour light-dark cycle with rat chow and water ad libitium. Animals were implanted with radio-telemetry devices (Data Science International, St. Paul, Minn., USA) one week before the start of the study. […]
The wet weight of aortic tissues was determined. […]
(§2) Tissues were fixed in 4% paraformaldehyde and subsequently embedded in paraffin. […] Collagen area density was calculated by dividing the PSR-stained area by the total area of the vessel.

[2] = test system: SHR/L-NAME model of hypertension; experiment: Vascular stiffness by wire myograph in L-NAME-treated SHRs; settings: L-NAME+4μ8c group, 18 days, maximally relaxed vessels
Protocol: as §1, with “In C to F, lines of best fit are bound by 95% confidence intervals (dotted lines). *, p<0.05.” left out
Vessels were mounted on a steel wire myograph and incubated in Ca^2±-free Hank's Basic Salt Solution containing 100 μM sodium nitroprusside to ensure maximum relaxation. […] Images of the vessels at each incremental tension were captured and lumen diameters were measured with ImageJ software. Circumferential stress (a) was calculated as F/tl, where F is the tension in the vessel wall, t is the radial thickness of the vessel wall and 1 is the axial length of the aortic ring. Circumferential strain (c) was calculated as (D−D0)/D0 where D is the lumen diameter at a given tension and D0 is the initial diameter under maximally relaxed conditions. […]

[3] = test system: SHR/L-NAME model of hypertension; experiment: Cardiac hypertrophy and fibrosis in L-NAME-treated SHRs
Protocol: 12-14 week old male SHRs were randomized to receive vehicle, L-NAME (50 mg/L) or L-NAME and 4μ8c (2.5 mg/kg/day i.p.) for 18 days. (A) Cardiac hypertrophy measured using heart weight to body ratio. (B) Quantification of Picro-Sirius Red-stained area in heart tissue. (C) Picro-Sirius Red staining of transverse heart sections. Bar: 4×, 500 μm; 20×, 200 μm. Data is presented as mean±SEM. *, p<0.05 vs. NT. #, p<0.05 vs L-NAME.
12-14 week old male SHRs were used to determine the effect of pharmacological IRE1α inhibition on L-NAME-induced vascular stiffening. They were maintained on a 12-hour light-dark cycle with rat chow and water ad libitium. Animals were implanted with radio-telemetry devices (Data Science International, St. Paul, Minn., USA) one week before the start of the study. Animals were randomized into one of three groups (n=6 per group): 1) No treatment, 2) L-NAME (50 mg/L in drinking water, Sigma-Aldrich), or 3) L-NAME+4μ8c (2.5 mg/kg/day i.p., Millipore). 4μ8c was administered in a vehicle of 10% DMSO, 10% Tween-80 and 80% normal saline. Animals in Group 2 received daily injections of the vehicle. All animals were fed a normal chow diet. […]
as §2

Structure (SMILES): Cc1cc(=O)oc2c(C=O)c(O)ccc12 [4μ8c, 7-Hydroxy-4-methyl-2-oxo-2H-chromene-8-carbaldehyde]
- Collagen content in homogenized aortic tissue ([1]; L-NAME+4μ8c group, PSR-based colorimetric assay): 47.10±2.88 μg/mg tissue
- fibrosis and vascular stiffness in the hypertensive animals ([1]; SHR/L-NAME, 4μ8c 2.5 mg/kg/day i.p.): reduced
- slope of the elastic modulus-stress line, carotid artery [2]: 14.42±0.59
- slope of the incremental elastic modulus versus stress line, aorta [2]: 3.970±0.129
- fibrosis in the left and right ventricles by PSR staining ([3]; 4μ8c-treated animals vs L-NAME group, FIGS. 7B and 7C): significantly reduced
- cardiac hypertrophy (heart weight to body weight ratio) ([3]; L-NAME+4μ8c group, 18 days, FIG. 7A): 4.293±0.438 mg HW/g BW
